For one series, the system named is hESCs (BG02). In words: Real-time impedance assay (RT-CES) for inhibitory and cytotoxic agents on hESCs. The following applies: 10 μM compound added after about 24 hours, cultured about 5 more days; compared to DMSO control. The source says: The foregoing 176 selected compounds from the complete LOPAC1280™ library were then used to screen human pluripotent stem cells, e.g., hESCs, and differentiating cultures during Stage 1 (definitive endoderm) using a real-time impedance assay (ACEA biosciences RT-CES system). The RT-CES system uses 96-well trays that contain embedded microsensors to monitor changes in electrical impedance, which is translated into a measure of cell index. Any overt alteration within a cell culture can be detected, including but not limited to cell proliferation, migration, cell spreading, apoptosis, differentiation and the like. […] An increase in the cell index indicates proliferation of the cells, for example, proliferation of the undifferentiated cells. […] See also FIG. 1. […] A “scallop” cell index is one which remains high due to a confluent culture of cells, but will go down and up (scallop) between daily feedings. Conversely, cells undergoing differentiation have distinctive patterns, such as peaks and troughs in the cell index, potentially indicative of an epithelial-to-mesenchymal transition, flattening, cell migration, apoptosis or similar differentiation and growth related changes.
Impedance Assay for Inhibitory and Cytotoxic Agents. Human pluripotent stem cells, e.g., 2×10^4 hESCs (BG02), were cultured in DC-HAIF, a heregulin-based defined media, with daily feeding in the impedance monitoring plates. After about 24 hours, and 10 μM of the selected LOPAC1280™ compound was added to each well (see arrowhead in FIGS. 3 A & B) and cultured for about an additional 5 days.

Series [1] has as its system undifferentiated hESCs growing in adherent culture. The experiment in a line: EC50 of cytotoxic effect on undifferentiated hESCs in adherent culture, real-time impedance assay. The following applies: Homo sapiens, read-out: EC50 concentrations for hES cells (cytotoxic effect). It counts as cell-based, human. The procedure: In summary, the final three (3) candidates identified from both the primary and secondary screens (EXAMPLE 1) and the full screen of the LOPAC1280™ collection (EXAMPLE 2) were Chelerythrine Chloride, Caffeic acid and Ivermectin. FIG. 11 lists the known or inferred mode(s) of action for these three compounds, as well as their structures. EC50 values for the respective cytotoxic effects on undifferentiated hESCs growing in adherent culture were determined using real-time impedance assays.
Depletion of OCT4-positive cells during Stage 1 differentiation was examined using the plating assay described above. Stage 1 differentiations of hES cells were treated from day 1 to 2 with the candidate compounds as described in Example 2 (chelerythrine chloride, caffeic acid and Ivermectin), at their EC50 concentrations for hES cells. Plated untreated and DMSO-treated aggregates were indistinguishable, and both contained discrete clusters of OCT4-positive cells. See FIG. 13A top and bottom panels for a DMSO treated example. The intensity of OCT4-positive staining in differentiating aggregate cell cultures treated with DMSO (control) was equivalent to undifferentiated hES cells.

The subject of the next series is hESCs. The experiment in a line: Secondary screen, lowest effective dose on hESCs. It counts as cell-based, human. The following applies: lowest concentration that elicited cytotoxicity, range 0.1 to 50 μM, read-out: ED hESC (lowest effective dose). How it is done:
To expand the number of potential candidate hESC cytotoxic and inhibitory compounds, the complete LOPAC1280™ collection (containing 1,280 compounds) was screened. In the primary screen, cytotoxicity was tested on undifferentiated hESCs (about 3×10^4 BG01 cells) in 16 standard 96-well trays, in DC-HAIF defined medium on growth factor-reduced MATRIGEL™ diluted 1:200, which were fed daily (FIG. 7A). 10 μM of each compound was added to the hESCs one day after plating, and the cells were cultured for an additional 2 days. Plates were then fixed and stained for alkaline phosphatase (AP) to identify relative decreases in proliferation or growth of hESCs (as reduced AP staining), indicative of lower proportions of hESCs. See the circled wells in FIG. 7A.
(§1) Using a range of different concentrations from 0.1 to 50 μM, the forty compounds in Table 6 were re-screened (secondary screen) using hESCS and NPCs. The effective dose (ED) was defined as the lowest concentration of a compound that elicited cytotoxicity during the secondary screen. […] The darker wells were indicative of the increased numbers or percentages of proliferating or growing pluripotent stem cells in the wells. In addition, these 40 compounds were screened on differentiating definitive endoderm (DE) cell cultures in 96-well plate impedance assays (described above) to determine which of these compounds were not cytotoxic to definitive endoderm cells at the lowest effective dose on either hESC or NPC. […] See “ACEA DE” column in Table 6.

In a further series the test system is NPCs. In words: Secondary screen, lowest effective dose on NPCs. It is filed as cell-based, human. The following applies: lowest concentration that elicited cytotoxicity, range 0.1 to 50 μM, read-out: ED NPC (lowest effective dose). The procedure: In addition, the complete LOPAC1280™ collection was also screened for effects on neural progenitor cells (NPCs) that were derived from the hESCs. Neural progenitors were plated in serum-free MedII conditioned medium at 6×10^4 cells/well and fed daily. Two days after plating, 10 μM of each compound was added and the cells were cultured for an additional 2 days. […] Reduced crystal violet staining was indicative of lower proportions of NPCs. See circled wells in FIG. 7B. The left and right columns of the LOPAC1280™ plates from which the compounds were dispensed were empty and served as untreated controls. […] See Table 6 below listing the name and class of activity of each candidate compound identified in this screen (except chelerythrine chloride, which is listed in Table 5). ChCl was not included in the subsequent round of screening. Therefore only 40 compounds were tested further.
as §1

Series [2] has as its system differentiating definitive endoderm (DE) cell cultures. In words: 96-well plate impedance assay (ACEA) on differentiating definitive endoderm at lowest effective dose. It counts as cell-based, human. On the set-up: key: Viable: Compounds that did not appear to be cytotoxic toward differentiating DE cultures were marked as “viable”, meaning that the compound did not affect the survival, growth, proliferation or differentiation of the differentiated cells. The following applies: at the lowest effective dose on either hESC or NPC.
Excerpt: (§2) The impedance assay on the hESCs using the compounds in Table 4 above gave greater than twenty (20) hits. However, the ideal candidate compound of the present invention should not only be inhibitory or cytotoxic to human pluripotent stem cells, such as hESCs or hIPSCs, but should at the same time have no effect on cell viability of differentiated or differentiating cell populations including Stage 1, 2, 3, 4 and 5 type cells cultures (definitive endoderm, foregut endoderm, posterior foregut, pancreatic endoderm and endocrine cells, respectively). […] Approximately 3×10^4 hES cells were plated per well and grown for 24 hrs in DC-HAIF defined medium (i.e. StemPro® hESC SFM medium (Life Technologies, Carlsbad, Calif.). Stage 1 or definitive endoderm differentiation was then induced by changing the medium and culturing in RPMI, 100 ng/mL Activin A, and 10 ng/mL of FGF2. […] of GSK-3 beta Inhibitor 15 (Calbiochem #361558) as added to the culture for the first 24 hours of differentiation only. 10 μM of each of the candidate compounds were added about 48 hours or 2 days after differentiation was induced (see FIGS. 3 C & D, large arrowhead), and the cells were cultured for an additional 2 days.
as §1

In series [3] the test system is differentiating Stage 1 cultures (definitive endoderm). In words: Secondary screen on differentiating Stage 1 cultures in 6-well trays. It is filed as cell-based, human. The following applies: compounds added to differentiating Stage 1 cultures.
Excerpt: as §2
Secondary Screen with Selected Compounds. A secondary screen using 9 of the 10 candidate compounds in Table 5 was performed by adding the compounds to differentiating Stage 1 cultures (definitive endoderm) as described above. For the secondary screen, larger standard 6-well trays were used instead of the RT-CEAS 96-well culture plates used in primary screens employing impedance assays. Only 9 of the 10 compounds in Table 5 were tested because the 10th was not available in sufficient quantity at the time the assays were performed. In the larger, 6-well trays, 5 of the 9 compounds listed in Table 5 had no effect on viability of differentiating cells or differentiated definitive endoderm. […] This assay also confirmed that the viability of differentiating cells and differentiated definitive endoderm cells was apparently consistent regardless of the numbers of cells tested, or the size, volume, or source of the culture vessel.

The subject of series [4] is adherent Stage 1 cell cultures of BG02. The experiment in a line: Q-PCR marker gene expression, adherent Stage 1 cultures of BG02. It is filed as cell-based, human. From the text:
FIGS. 4A-4G are bar graphs showing the relative gene expression levels of OCT4 (FIG. 4A), NANOG (FIG. 4B), FOXA2 (FIG. 4C), SOX17 (FIG. 4D), SOX7 (FIG. 4E), PAX6 (FIG. 4F) and ZIC1 (FIG. 4G) BG02 with treatment of candidate selective cytotoxic agents from the LOPAC1280™ sublibrary (Table 4) to adherent Stage 1 cell cultures of BG02. Expression levels were normalized using the geometric mean of three housekeeping genes, GUSB, CYCG and TBP. The graphs depict fold regulation compared to the hESC sample. The large arrow heads indicate time of the drug treatment. D=DMSO (control); C=Chelerythrine Chloride; A=AG490; B=BTO-1; De=Dephostatin; S=SU6656.
Screen for Effects on Stages 1-5 Differentiation. To further determine whether these 5 candidate compounds added at Stage 1 affected other differentiated cell types (e.g. Stages 2-5: foregut endoderm, posterior foregut endoderm, pancreatic endoderm and endocrine precursor cells, respectively), hES were differentiated in the presence or absence of compounds, and RNA samples were taken at various stages for gene expression analysis by Q-PCR.
Gene expression levels were plotted relative to a DMSO treated control at the end of Stage 1 (FIG. 4), and relative to undifferentiated hESC aggregates (FIGS. 5 and 6). See “Control” in FIGS. 4, 5 & 6. […] Chelerythrine chloride, Dephostatin, SU 6656 and Tyrphostin AG 490 compounds each caused an increase in SOX17 gene expression as compared to the DMSO control, consistent with the gene expression profile for Stage 1 definitive endoderm cell cultures (FIG. 4D). However, Tyrphostin AG 490 (AG) and SU 6656 (SU) each caused a decrease in FOXA2 (HNF3β) expression as compared to the DMSO control, indicating adverse effects of these two compounds on definitive endoderm (FIG. 4C). Yet none of the compounds appeared to substantially impact expression of non-definitive endoderm markers including SOX7, PAX6 or ZIC1 (FIGS. 4 E, 4F & 4G), and were not, therefore, excluded on the basis of inducing differentiation to other cell types. […] This compound neither decreased OCT4 or NANOG expression, nor increased FOXA2 (HNF3β) or SOX17 expression, as would have been expected of a pluripotent stem cell-selective inhibitor/cytotoxic agent.

Where two headings read alike, the source gives them in different places.

In the case of `COc1ccc2c(c[n+](C)c3c4cc5c(cc4ccc23)OCO5)c1OC` [Chelerythrine chloride], the “cell index (impedance); inhibitory or cytotoxic effect on the hESCs” value with hESCs (BG02) was “significant decrease”. Further, in series [1], the EC50 was determined as 1400 nM.
For the molecule `O=c1[nH]c2ccccc2n1CCCN1CCC(n2c(=O)[nH]c3cc(Cl)ccc32)CC1` [Domperidone], the minimal effective concentration was 25 µM with hESCs (Homo sapiens) and 0.1 µM in the series with NPCs (Homo sapiens, 48 h). Besides, the “ACEA DE” value in series [2] is listed as “Viable”.
Consider `N#Cc1cc([N+](=O)[O-])c2sc(C(N)=O)[n+]([O-])c2c1` [BTO-1], for which the “cell index (impedance); inhibitory or cytotoxic effect on the hESCs” value with hESCs (BG02) is reported as “significant decrease”. The “Viability of Definitive Endoderm” value in series [3] is reported as “Viable”. For the same molecule, the “FOXA2 (HNF3β) expression” value in series [4] (end of Stage 1, compared to DMSO control (FIG. 4C)) is recorded as “did not appear to have any effect”. In addition, in series [4] (end of Stage 1, compared to DMSO control (FIG. 4D)), the SOX17 gene expression entry was “did not appear to have any effect”. Besides, the “OCT4 and NANOG gene expression” value in series [4] (end of Stage 1, compared to DMSO control (FIGS. 4A, 4B)) is listed as “did not appear to have any effect”.
Regarding `Oc1cc2c(cc1O)CN(C(=S)NCCc1ccc(Cl)cc1)CCC2` [Capsazepine], the minimal effective concentration in the series on hESCs (Homo sapiens) turned out to be 5 µM; in the series on NPCs (Homo sapiens, 48 h), 25 µM. Besides, the “ACEA DE” value in series [2] was “Viable”.
Consider `N=C(N)c1ccc(OCCCCCOc2ccc(C(=N)N)cc2)cc1` [Pentamidine isethionate], for which the minimal effective concentration in the series on hESCs (Homo sapiens) was 1 µM; with NPCs (Homo sapiens, 48 h) it was 25 µM. Besides, in series [2], the “ACEA DE” value is “Viable”.
In the case of `N#C/C(=C\c1ccc(O)c(O)c1)C(=O)Nc1ccccc1` [Tyrphostin AG 494], the “cell index (impedance); inhibitory or cytotoxic effect on the hESCs” value in the series on hESCs (BG02) was “significant decrease”.
In the case of `Oc1ccccc1O` [Pyrocatechol], the minimal effective concentration was 5 µM with hESCs (Homo sapiens) and 5 µM in the series with NPCs (Homo sapiens, 48 h). The “ACEA DE” value in series [2] was “Viable”.
Take `CC(Cc1ccc(O)c(O)c1)C(C)Cc1ccc(O)c(O)c1` (stereo not drawn) [Nordihydroguaiaretic acid from Larrea, Nordihydroguaiaretic acid from Larrea divaricata (creosote bush)]: the “cell index (impedance); inhibitory or cytotoxic effect on the hESCs” value with hESCs (BG02) is given as “significant decrease”. Moreover, the minimal effective concentration with hESCs and in the series on NPCs was 5 µM each time. In addition, in series [2], the “ACEA DE” value is on record as “Viable”.
Turning to `COc1ccc(CCCOC(Cn2ccnc2)c2ccc(OC)cc2)cc1` (stereo not drawn) [SKF 96365], the minimal effective concentration was found to be 25 µM in the series on hESCs (Homo sapiens) and 5 µM with NPCs (Homo sapiens, 48 h). Further, the “ACEA DE” value in series [2] is given as “Viable”.

Source of the values: patent US9365830B2, “Agents and methods for inhibiting human pluripotent stem cell growth” (VIACYTE, INC., priority 2010, dated 2016).
